Assay results from patent publication US7166296B2, “Pharmaceutical formulations and ligands for use therein; mimetics for UEA-1” (Sarlan, Ltd., priority 2001, dated 2007).
≈ marks a conversion by molar mass, not a printed value. Where a name gives a salt, the structure may show the parent alone. Non-standard residues stand in square brackets, D forms with d. Residues, ends and D or L forms follow the SMILES beside them. *: point of attachment. Galloyl = O=C(c1cc(O)c(O)c(O)c1)*

Assays:
[1] = system: UEA-1 binding sites on Caco-2 cell membrane preparations; assay: Single tier competition assay: inhibition of biotinylated UEA-1 binding, compound and biotinylated UEA-1 incubated together; parameters: species or system human; conditions: for Av % Inhibition / Avg % Inhibtion: Single Tier Assay; for Av % Inhibition: library MSI 22; for Avg % Inhibtion: library MSI 26; for IC 50 (ug/ml) 1st tier / IC50: Table 8, galloyl constructs; for IC50: read-out: IC 50 (uM) 1st tier (converted)
Protocol: (§1) The epithelial cell binding ability of compounds and mixtures obtained from synthetic combinatorial libraries was determined by competition assays. These assays were set up to measure the inhibition of binding of biotinylated UEA-1 to membrane preparations of the epithelial cell line Caco-2 (colon carcinoma cells-2), by compounds and mixtures of the combinatorial libraries. This cell line is a conventional model for epithelial cells.
(§2) Two competition inhibition assays were used in this case, namely single tier and two tier assays. These assays differed from each other in that in the single tier assay, the mixtures/compounds and the biotinylated UEA-1 were incubated together with the Caco-2 cell membrane preparations, while in case of the two-tier assay, the mixture/compounds were allowed to incubate alone with the cell membranes in the absence of biotinylated UEA-1, which was added in the next step. Addition of the extra step in the two-tier assay was to ensure that the compounds inhibiting the binding of biotinylated UEA-1 to the Caco-2 cell membranes were doing so by themselves binding to surface receptors on the Caco-2 cells and not to the biotinylated UEA-1. Each assay will be described in detail.
(§3) • 1. Confluent Caco-2 cell monolayers (grown in 75 cm^2 flasks for up to 1 week at 37° C. and 5% CO2) were washed twice in Dulbecco's PBS (DPBS). • 2. Cell monolayers were treated with 10 mM EDTA-DPBS for 5–10 min at 37° C. and cells were harvested by centrifugation at 1000 rpm for 5 min. • 3. Cells were washed 3 times in DPBS. • 4. […] The cells were homogenised for 30 sec. • 6. The homogenates were centrifuged in hard walled tubes at 40,000 rpm for 45 min at 4° C. • 7. […] The supernatant was removed and stored on ice. The procedure was repeated adding the second supernatant to the first. • 8. The protein concentration was determined using e.g. a Bio-Rad protein assay. • 9. All fractions were stored at −80° C. prior to use. Single Tier Assays: • 1. 96-well microtiter plates were coated with membrane preparations of Caco-2 cells either by allowing them to incubate on the plates for 2½ hours at room temperature or by incubating them overnight at 4° C. 100 μl of 10 μg/ml (in 0.05 M carbonate buffer, pH 9.6) of membrane preparation was added to each well. • 2. The plates were flicked out, patted dry and blocked with bovine serum albumin (BSA)/DPBS (200 μl/well) for 1 to 4 hours at room temperature after which they were washed three times in water. • 3. […] Control wells were also set up in which the Caco-2 cell membrane preparations were incubated with unconjugated UEA-1. […] Following overnight incubation the plates were washed thoroughly (3–6 times). The plates were flicked out, patted dry and biotinylated UEA-1 was detected with commercial Streptavidin conjugated to horseradish peroxidase (HRP) (CalBiochem). […] The plates were left to incubate for an hour at room temperature. • 6. The plates were then washed 3–6 times and the biotin-streptavidin binding was detected by adding an HRP substrate OPD (orthophenyl diamine) to each well. 100 μl/well of this substrate at a final concentration of 1.6 mg/ml was added to each well. Before adding to the wells, this substrate was activated by addition of 50 μl of 3% H2O2 per plate and the reaction was allowed to develop in the dark. • 7. The reaction was stopped by adding 50 μl of 4 N H2SO4 to each well after approximately 5–10 minutes or when sufficient colour had developed. The OD490 (absorbance at 490 nm) of each well was measured using a conventional 96 well plate reading spectrophotometer. Two Tier Assays: • 1. 96 well plates were coated with Caco-2 cell membrane preparations in the same manner as described in the single tier assay. • 2. […] 100 μl at these final concentrations were added to each well. • 4. The plates were then left to incubate overnight, a step that would allow the mixtures and compounds to interact with the Caco-2 cell membranes without the presence of the competitor (biotinylated UEA-1) itself. • 5. […]

[2] = system: UEA-1 binding sites on Caco-2 cell membrane preparations; assay: Two tier competition assay: compound incubated alone with membranes, biotinylated UEA-1 added in next step; parameters: species or system human; conditions: for Av % Inhibition / Avg % Inhibition: Two Tier Assay; for Av % Inhibition: library MSI 22; for Avg % Inhibition: library MSI 26; for IC 50 (ug/ml) 2nd tier / IC50: Table 8, galloyl constructs; for IC50: read-out: IC 50 (uM) 2nd tier
Protocol: as §1, §2, §3

Row | SMILES | Av % Inhibition ([1]; 62.5 μg/ml) [%] | Av % Inhibition ([1]; 250 μg/ml) [%] | Av % Inhibition ([2]; 62.5 μg/ml) [%] | Av % Inhibition ([2]; 250 μg/ml) [%] | IC 50 (ug/ml) 1st tier [1] | IC50 [1] [µM] | IC 50 (ug/ml) 2nd tier [2] | IC50 [2] [µM] | other results
1 | CNC[C@@H](Cc1ccc2ccccc2c1)N(C)C[C@H](NC(=O)c1cc(O)c(O)c(O)c1)C(C)C [D-Napala, D-Val, Gallic Acid] | 4.7 | 26.8 | 24.2 | 46.9 |  |  |  |  | 
2 | CNC[C@@H](Cc1ccc2ccccc2c1)N(C)C[C@H](Cc1ccc(Cl)cc1)NC(=O)c1cc(O)c(O)c(O)c1 [D-Napala, L-pCl-Phe, Gallic Acid] | −14.7 | 7.4 | 23.4 | 43.3 |  |  |  |  | 
3 | CCC[C@H](CNC)N(C)C[C@H](NC(=O)c1cc(O)c(O)c(O)c1)C(C)C [D-Nve, D-Val, Gallic Acid] | 13.7 | 46 | 12.1 | 29.8 |  |  |  |  | 
4 | CCC[C@H](CNC)N(C)C[C@@H](CC1CCCCC1)NC(=O)c1cc(O)c(O)c(O)c1 [D-Nve, D-chAla, Gallic Acid] | 22.0 | 47.8 | 20.6 | 48.5 |  |  |  |  | 
5 | CCOc1ccc(C[C@H](CNC)N(C)C[C@@H](CCCNC(=N)NS(=O)(=O)c2ccc(C)cc2)NC(=O)c2cc(O)c(O)c(O)c2)cc1 [D-Tyr (Et), D-Arg(Tos), Gallic Acid] | 27.2 | 48 | 30 | 61 |  |  |  |  | 
6 | CCOc1ccc(C[C@H](CNC)N(C)C[C@H](CC2CCCCC2)NC(=O)c2cc(O)c(O)c(O)c2)cc1 [D-Tyr (Et), L-chAla, Gallic Acid] | 8.5 | 33.3 | 31.8 | 52.7 |  |  |  |  | 
7 | COc1cc(C(=O)OCCCN2CCCN(CCCOC(=O)c3cc(OC)c(OC)c(OC)c3)CC2)cc(OC)c1OC [Dilazep dihydrochloride, reference compound] |  |  |  |  |  |  |  |  | Avg % Inhibtion ([1]; 62.5 μg/ml): 14.7%; Avg % Inhibtion ([1]; 250 μg/ml): 10.4%; Avg % Inhibition ([2]; 62.5 μg/ml): −25%; Avg % Inhibition ([2]; 250 μg/ml): −25%
8 | Oc1cc(O)c2c(c1)O[C@H](c1cc(O)c(O)c(O)c1)[C@H](O)C2 [Epigallocatechin, reference compound] |  |  |  |  |  |  |  |  | Avg % Inhibtion ([1]; 62.5 μg/ml): 10.1%; Avg % Inhibtion ([1]; 250 μg/ml): 0%; Avg % Inhibition ([2]; 62.5 μg/ml): −12%; Avg % Inhibition ([2]; 250 μg/ml): −10%
9 | O=C(O[C@@H]1Cc2c(O)cc(O)cc2O[C@H]1c1cc(O)c(O)c(O)c1)c1cc(O)c(O)c(O)c1 [Gallocatechin gallate, reference compound] |  |  |  |  |  |  |  |  | Avg % Inhibtion ([1]; 62.5 μg/ml): 54.6%; Avg % Inhibtion ([1]; 250 μg/ml): 33.6%; Avg % Inhibition ([2]; 62.5 μg/ml): 7%; Avg % Inhibition ([2]; 250 μg/ml): 14.1%
10 | CNC[C@H](Cc1ccc2ccccc2c1)N(C)C[C@@H](Cc1ccc2ccccc2c1)NC(=O)c1cc(O)c(O)c(O)c1 [L-NapAla, D-Napala, Gallic Acid] | −3 | 7 | 22.0 | 44.6 |  |  |  |  | 
11 | CNC[C@H](Cc1ccc2ccccc2c1)N(C)C[C@H](Cc1ccc(Cl)cc1)NC(=O)c1cc(O)c(O)c(O)c1 [L-NapAla, L-pCl-Phe, Gallic Acid] | 31.5 | 46.9 | 26.7 | 54.7 |  |  |  |  | 
12 | CCCCCCCCCCCCOC(=O)c1cc(O)c(O)c(O)c1 [Lauryl gallate, reference compound] |  |  |  |  |  |  |  |  | Avg % Inhibtion ([1]; 62.5 μg/ml): 39.1%; Avg % Inhibtion ([1]; 250 μg/ml): 22.5%; Avg % Inhibition ([2]; 62.5 μg/ml): 20.4%; Avg % Inhibition ([2]; 250 μg/ml): 47.9%
13 | CC(=O)N[C@H](CCCCNC(=O)c1cc(O)c(O)c(O)c1)C(=O)N[C@H](CCCCNC(=O)c1cc(O)c(O)c(O)c1)C(=O)N[C@H](CCCCNC(=O)c1cc(O)c(O)c(O)c1)C(=O)N[C@H](CCCCNC(=O)c1cc(O)c(O)c(O)c1)C(=O)N[C@H](CCCCNC(=O)c1cc(O)c(O)c(O)c1)C(N)=O [MSI 30 #8] (Ac-[dK](Galloyl)[dK](Galloyl)[dK](Galloyl)[dK](Galloyl)[dK](Galloyl)-NH2) |  |  |  |  | 70 µg/mL (≈ 47.9 µM) | 48 | 15 µg/mL (≈ 10.3 µM) | 10 | 
14 | NC(=O)[C@@H](CCCCNC(=O)c1cc(O)c(O)c(O)c1)NC(=O)[C@@H](CCCCNC(=O)c1cc(O)c(O)c(O)c1)NC(=O)[C@@H](CCCCNC(=O)c1cc(O)c(O)c(O)c1)NC(=O)[C@@H](CCCCNC(=O)c1cc(O)c(O)c(O)c1)NC(=O)[C@@H](CCCCNC(=O)c1cc(O)c(O)c(O)c1)NC(=O)c1cc(O)c(O)c(O)c1 [MSI 30 #10] (Galloyl-[dK](Galloyl)[dK](Galloyl)[dK](Galloyl)[dK](Galloyl)[dK](Galloyl)-NH2) |  |  |  |  | 23 µg/mL (≈ 14.6 µM) | 14 | 5 µg/mL (≈ 3.18 µM) | 3 | 
15 | CC(=O)N[C@H](CCCCNC(=O)c1cc(O)c(O)c(O)c1)C(=O)N[C@H](CCCCNC(=O)c1cc(O)c(O)c(O)c1)C(=O)N[C@H](CCCCNC(=O)c1cc(O)c(O)c(O)c1)C(=O)N[C@H](CCCCNC(=O)c1cc(O)c(O)c(O)c1)C(=O)N[C@H](CCCCNC(=O)c1cc(O)c(O)c(O)c1)C(=O)N[C@H](CCCCNC(=O)c1cc(O)c(O)c(O)c1)C(N)=O [MSI 30 #11] |  |  |  |  | 13 µg/mL (≈ 7.47 µM) | 7 | 2 µg/mL (≈ 1.15 µM) | 1 | 
16 | CC(=O)N[C@H](CCCCNC(=O)c1cc(O)c(O)c(O)c1)C(=O)N[C@H](CCCCNC(=O)c1cc(O)c(O)c(O)c1)C(=O)N[C@H](CCCCNC(=O)c1cc(O)c(O)c(O)c1)C(=O)N[C@H](CCCCNC(=O)c1cc(O)c(O)c(O)c1)C(=O)N[C@H](CCCCNC(=O)c1cc(O)c(O)c(O)c1)C(=O)N[C@H](CCCCNC(=O)c1cc(O)c(O)c(O)c1)C(=O)N[C@H](CCCCNC(=O)c1cc(O)c(O)c(O)c1)C(N)=O [MSI 30 #14] (Ac-[dK](Galloyl)[dK](Galloyl)[dK](Galloyl)[dK](Galloyl)[dK](Galloyl)[dK](Galloyl)[dK](Galloyl)-NH2) |  |  |  |  | 17 µg/mL (≈ 8.41 µM) | 8 | 9 µg/mL (≈ 4.45 µM) | 4 | 
17 | NC(=O)[C@@H](CCCCNC(=O)c1cc(O)c(O)c(O)c1)NC(=O)[C@@H](CCCCNC(=O)c1cc(O)c(O)c(O)c1)NC(=O)[C@@H](CCCCNC(=O)c1cc(O)c(O)c(O)c1)NC(=O)[C@@H](CCCCNC(=O)c1cc(O)c(O)c(O)c1)NC(=O)[C@@H](CCCCNC(=O)c1cc(O)c(O)c(O)c1)NC(=O)[C@@H](CCCCNC(=O)c1cc(O)c(O)c(O)c1)NC(=O)[C@@H](CCCCNC(=O)c1cc(O)c(O)c(O)c1)NC(=O)c1cc(O)c(O)c(O)c1 [MSI 30 #16] (Galloyl-[dK](Galloyl)[dK](Galloyl)[dK](Galloyl)[dK](Galloyl)[dK](Galloyl)[dK](Galloyl)[dK](Galloyl)-NH2) |  |  |  |  | 19 µg/mL (≈ 8.92 µM) | 9 | 8 µg/mL (≈ 3.75 µM) | 4 | 
18 | NC(=O)C(CCCCNC(=O)C(CCCCNC(=O)C(CCCCNC(=O)c1cc(O)c(O)c(O)c1)NC(=O)c1cc(O)c(O)c(O)c1)NC(=O)C(CCCCNC(=O)c1cc(O)c(O)c(O)c1)NC(=O)c1cc(O)c(O)c(O)c1)NC(=O)C(CCCCNC(=O)C(CCCCNC(=O)c1cc(O)c(O)c(O)c1)NC(=O)c1cc(O)c(O)c(O)c1)NC(=O)C(CCCCNC(=O)c1cc(O)c(O)c(O)c1)NC(=O)c1cc(O)c(O)c(O)c1 (stereo not drawn) [MSI 30 #17] |  |  |  |  | 1st tier = 52nd tier = 5 ug/ml | 2 | 1st tier = 52nd tier = 5 ug/ml | 2 | 
